Test results reported in patent US20240261296A1, “THERAPEUTIC MODALITIES FOR INHIBITING PANCREATIC BETA CELL IMPAIRMENT AND TREATING DIABETES” (Hadasit Medical Research Serices & Development Ltd., priority 2021, published 2024).

Assays:
Type in all cases: in vivo
[1] = tested on: db/db mice; test: fasting blood glucose (FBG) in db/db and control mice
From the text: Fasting blood glucose (FBG) concentrations in each of the treated groups were also compared following 4- and 8-weeks treatment as described in Example 9. Results for the 4-weeks treatment of the control mice and the db/db mice are presented in FIGS. 20A-20B respectively and for the 8-weeks treatment of the control mice and the db/db mice are presented in FIGS. 20C-20D, respectively; each treatment is graphically represented as described in Example 9.
FBG concentrations. FBG concentrations in each of the treated groups, vehicle, L-798106, C17 and C20, was compared following 4- and 8-weeks treatment essentially as described in Example 11. Results for the 4-weeks treatment of the control mice and the db/db mice are presented in FIGS. 29A-29B respectively and for the 8-weeks treatment of the control mice and the db/db mice are presented in FIGS. 29C-29D, in which, each treatment is graphically represented as described in Example 14, The numbers of tested mice are as follows: control mice (n=10-15), db/db mice (n=10).

[2] = blood insulin concentrations by serum C-peptide ELISA; conditions: 8 weeks oral treatment; vs vehicle-treated diabetic mice
Description: At the end of the 8 week-long period of treatment as described in Example 9, mice were sacrificed and blood samples were collected, and analyzed for different parameters as detailed below.
Blood insulin concentrations.
Blood insulin concentrations. Following 8 weeks of treatment, blood samples were collected and the levels of insulin in the collected sera were assessed essentially as described in Example 12. The results are presented in FIG. 28, in which the different test groups as presented in FIG. 28 are represented as described in Example 14 and “ns” indicates non-significant differences. The numbers of tested mice are as follows: vehicle (n=10), L-798106 (n=10), C17 (n=5), C20 (n=5).

[3] = tested on: db/db mice; test: Insulin Tolerance Test (ITT); conditions: 8 weeks oral treatment; for glucose levels after insulin injection (insulin sensitivity), db/db mice: 0.75 U/kg insulin, all time points, vs vehicle
Description: An Insulin Tolerance Test (ITT) was conducted to determine the effect of the test compounds on insulin resistance, following oral administration of Vehicle or the tested compounds as described in Example 9. To this end, the different treated groups were further subjected to a subsequent 5-hour fast and then injected with 0.75 U/kg insulin. Blood glucose was measured at the time of insulin injection (baseline level) and at the indicated time intervals thereafter. Blood glucose levels and AUC of the wild-type mice are presented in FIGS. 19A-19B respectively, and blood glucose levels and AUC of the db/db mice are presented in FIGS. 19C-19D respectively. The different test groups as presented in FIGS. 19A-19D are represented as described in Example 9.
To determine the effect of the C17 and C20 compounds on insulin resistance, an ITT was conducted essentially as described in Example 11. Blood glucose levels and AUC of the wild-type mice are presented in FIGS. 27A-27B respectively (n=5-15), and blood glucose levels and AUC of the db/db mice are presented in FIGS. 27C-27D respectively (n=5-10). The different test groups as presented in FIGS. 27A-27D are represented as described in Example 14.

[4] = liver function parameters in sera of C57Bl/6 mice
Description: Blood was collected by cardiac puncture, and 50 μl were collected in EDTA containing tubes for cell blood count (CBC). Further, 200-300 μl of blood was centrifuged and serum was collected for biochemical analysis. C. Effects of orally administered compounds on liver function parameters: The blood levels of albumin, the liver aspartate transaminase (AST) and alanine transaminase (ALT) were measured in the sera obtained from mice 24 h after the third gavage with saline/DMSO (Control Saline); 3 mg/kg/day Compound C5; Compound C13 or the EP3 antagonist L-798106. Results are presented in FIG. 11A for Albumin, FIG. 11B for AST, and FIG. 11C for ALT. […] All p-values >0.05. C. Liver function parameters: Blood levels of albumin (FIG. 14A), liver transaminases: aspartate transaminase (AST, FIG. 14B) and alanine transaminase (ALT, FIG. 14C), as well as bilirubin, were measured in sera obtained from mice 24 h after injection of either Saline/DMSO (Control Saline); C5; C13 or L-798106. […] Typically, this biomarker levels rise with liver injury and help monitor function under drugs treatment. Here a decrease in the levels of ALT in the serum of L-798106- and C13-treated mice, is not considered to indicate liver damage. Bilirubin<1 μM was measured in all test groups.

[5] = tested on: C57Bl/6 mice; test: acute toxicity, IP and oral; conditions: for physical or behavioral differences: IP 3 mg/kg or gavage total 9 mg/kg; for differences between experimental groups and saline/DMSO control mice (summary): IP 3 mg/kg/mouse or gavage 9 mg/kg/mouse
Description: The safety of compounds C5 and C13 was examined in various in vivo settings, and compared to that of L-798106. The compounds were administered by oral gavage or intraperitoneal (IP) injection to C57Bl/6 mice, and acute toxicity, liver and kidney functions and blood glucose and insulin levels were evaluated. Additional safety experiments and measurements of various blood parameters in diabetic mice are further presented in Example 12 below.
Acute toxicity—IP and oral. For acute toxicity studies, a single IP dose of 3 mg/kg, or three oral doses (total of 9 mg/Kg) were administered. No mortality was observed by the end of the monitoring period (two days for IP administration or four days for oral administration), and all animals survived both modes of administration. No physical or behavioral differences were observed between the different groups and between the two modes of drug administration. Pictures of the sites of IP injection were taken when animals were sacrificed and no damage was observed.
Male mice (n=8 per group) were assigned to the following test groups. A dosage of 3 mg/kg/mouse was administered daily for 3 consecutive days in 200 μl of:
Group A: saline and DMSO carrier (referred to throughout the drawings and examples describing the in vivo experiment as “Control-Saline”, “Vehicle”, “Saline” or “Control”), at the equivalent concentration administered the other test groups (2.5%). Group B: Compound 1b (C5) at 3 mg/Kg: (total of 9 mg/Kg). Group C: Compound 1a (C13) at 3 mg/Kg: (total of 9 mg/Kg). Group D: L-798106 at 3 mg/Kg: (total of 9 mg/Kg).

[6] = 4 weeks of treatment, vs vehicle
[7] = oral 3 mg/kg/day, 24 h after third gavage

SMILES | FBG in db/db mice [1, 6] | FBG in control mice ([1]; 8 weeks of treatment) | blood insulin levels (serum C-peptide) in diabetic mice [2] | glucose levels after insulin injection (insulin sensitivity), db/db mice [3] | alanine transaminase (ALT) ([4]; IP, 24 h after injection) | albumin ([4]; IP, 24 h after injection) | aspartate transaminase (AST) ([4]; IP, 24 h after injection) | alanine transaminase (ALT) [4, 7] | albumin [4, 7] | aspartate transaminase (AST) [4, 7] | physical or behavioral differences [5] | differences between experimental groups and saline/DMSO control mice (summary) [5] | FBG in db/db mice ([1]; 8 weeks of treatment) | baseline glucose levels in ITT ([3]; 5-hour fast)
CC[C@H](C)c1ccc(S(=O)(=O)Nc2ccccc2C(=O)N2C[C@@H](C)O[C@@H](C)C2)cc1 [Compound C5, 4-((S)-sec-butyl)-N-(2-((2S,6R)-2,6-dimethylmorpholine-4-carbonyl)phenyl)benzenesulfonamide] | significant decrease in FBG | decrease in FBG in the control mice, although to a much lesser extent | the differences did not reach statistical significance | Improve Insulin Sensitivity | no statistically significant differences | no statistically significant differences | no statistically significant differences | no statistically significant differences | no statistically significant differences | no statistically significant differences | No physical or clinical behavioral differences | no significant differences were observed | – | –
CC[C@@H]1CC[C@H](C)N1C(=O)c1cccc(NS(=O)(=O)c2ccc(C)c(F)c2)c1 [Compound C13, N-(3-((2R,5S)-2-ethyl-5-methylpyrrolidine-1-carbonyl)phenyl)-3-fluoro-4-methylbenzenesulfonamide] | significant decrease in FBG | decrease in FBG in the control mice, although to a much lesser extent | the differences did not reach statistical significance | Improve Insulin Sensitivity | lower concentrations of alanine transaminase | no statistically significant differences | no statistically significant differences | no statistically significant differences | no statistically significant differences | no statistically significant differences | No physical or clinical behavioral differences | no significant differences were observed | significantly more pronounced | –
COc1ccc(Br)cc1S(=O)(=O)NC(=O)/C=C/c1ccccc1Cc1ccc2ccccc2c1 [Compound L-798106, (2E)-N-[(5-bromo-2-methoxyphenyl)sulfonyl]-3-[2-(2-naphthalenylmethyl)phenyl]-2-propenamide, reference compound] | significant decrease in FBG | decrease in FBG in the control mice, although to a much lesser extent | the differences did not reach statistical significance | significant decrease in glucose levels | lower concentrations of alanine transaminase | no statistically significant differences | no statistically significant differences | no statistically significant differences | no statistically significant differences | no statistically significant differences | No physical or clinical behavioral differences | no significant differences were observed | significantly more pronounced | reduced baseline glucose levels
